According to US20230024302A1, “2,3,5-TRISUBSTITUTED PYRAZOLO[1,5-A]PYRIMIDINE COMPOUNDS” (Arcus Biosciences, Inc., priority 2019, published 2023):

Assays:
[1] = target: T1, PI3Kγ (p120γ) (Homo sapiens, UniProt P48736); assay: Inhibition of PI3K kinase activity (ADP Glo), PI3Kγ; details: Table 1, p120γ, read-out: biochemical potency (PI3Kγ IC50)
T1 construct: purchased Promega V1761
Procedure: Compounds were evaluated to determine the potency with which they inhibited the kinase activity of the Class I PI3K subunits p110α/p85α (Promega, Cat #V1721), p110β/p85α (Promega, Cat #V1751), p120γ (Promega, Cat #V1761) and p110δ/p85α (Promega, Cat #V1771). Activity was determined as a function of ADP (adenosine diphosphate) generated from ATP consumed during the phosphorylation of Phosphatidylinositol 4,5-bisphosphate (PIP2) (Promega, Cat #V1701) to yield Phosphatidylinositol (3,4,5)-trisphosphate (PIP3). ADP levels in the assay mixture at the end of the reaction were quantitated using ADP Glo (Promega, Cat #V9103) according to the manufacturer's recommended protocol.
Enzyme was prepared for each of the PI3K subunits in 100 mM HEPES, pH 7.4, 100 mM NaCl, 6 mM MgCl2 and 0.05% BSA. p110α/p85α was prepared at 2 nM (2×), p110β/p85α was prepared at 7 nM (2×), p120γ was prepared at 8 nM (2×) and p110δ/p85α was prepared at 2 nM (2×). Five microliters of 2× enzyme dilution of each PI3K subunit were added to a 384-well white Opti-plates pre-dispensed with compound and allowed to incubate for 1 h at rt. A substrate mix containing 0.1 mg/ml (2×) of PIP2 and 50 μM (2×) ATP (Promega, Cat #V915) was prepared in 25 mM HEPES and 0.5 mM EGTA. Reactions were initiated by addition of 5 μl of 2× substrate mix to each well of the plates containing various PI3K isoforms and allowed to proceed for 60 min at rt. Ten microliters of ADP Glo reagent 1 were added to the wells of each plate and allowed to incubate at rt for 45 min according to the manufacturer's directions. Following incubation, 20 μl of ADP Glo reagent 2 was added to each plate and allowed to incubate for an additional 45 min. Luminescent signal, generated by ADP Glo, was quantified by reading on a Perkin Elmer Envision multimode reader. Compound potencies (IC50's) were determined using a standard 4-parameter fit non-linear regression fit.

[2] = target: T2, PI3Kγ (Homo sapiens, UniProt P48736); assay: PI3Kγ cellular assay in THP-1 cells (AKT pS473 AlphaLISA); assay type: cell-based; details: Table 1, rhMCP-1 stimulated AKT pS473, read-out: cellular potency (PI3Kγ IC50)
T2 construct: host or cells: THP-1
Procedure: Twenty microliters of serum starved THP-1 cells were added to the compound plate in serum free DMEM at a density of 9×10^6 cells per ml. Final assay conditions comprised 1.8×10^5 THP-1 cells per well with test compounds in 2% DMSO across a concentration range from 4 nM to 30 μM. […] Briefly, 10 μL of 4× lysis buffer was added to cells after stimulation. Following 60 min incubation at rt, 10 μL of cell lysate was transferred to a fresh 384-well Opti-plate to which 5 μL of AlphaLisa acceptor beads and 5 μL of AlphaLisa donor beads had been added. […] PI3Kγ activity was evaluated as a correlate of endogenous AKT phosphorylation levels. Percentage maximum activity in each test well was calculated based on DMSO (100% activity) and positive control treated cell wells (0% activity). The potencies (IC50's) of test compounds were determined using a standard 4-parameter fit non-linear regression fit.

T2 sequence (P48736 whole entry): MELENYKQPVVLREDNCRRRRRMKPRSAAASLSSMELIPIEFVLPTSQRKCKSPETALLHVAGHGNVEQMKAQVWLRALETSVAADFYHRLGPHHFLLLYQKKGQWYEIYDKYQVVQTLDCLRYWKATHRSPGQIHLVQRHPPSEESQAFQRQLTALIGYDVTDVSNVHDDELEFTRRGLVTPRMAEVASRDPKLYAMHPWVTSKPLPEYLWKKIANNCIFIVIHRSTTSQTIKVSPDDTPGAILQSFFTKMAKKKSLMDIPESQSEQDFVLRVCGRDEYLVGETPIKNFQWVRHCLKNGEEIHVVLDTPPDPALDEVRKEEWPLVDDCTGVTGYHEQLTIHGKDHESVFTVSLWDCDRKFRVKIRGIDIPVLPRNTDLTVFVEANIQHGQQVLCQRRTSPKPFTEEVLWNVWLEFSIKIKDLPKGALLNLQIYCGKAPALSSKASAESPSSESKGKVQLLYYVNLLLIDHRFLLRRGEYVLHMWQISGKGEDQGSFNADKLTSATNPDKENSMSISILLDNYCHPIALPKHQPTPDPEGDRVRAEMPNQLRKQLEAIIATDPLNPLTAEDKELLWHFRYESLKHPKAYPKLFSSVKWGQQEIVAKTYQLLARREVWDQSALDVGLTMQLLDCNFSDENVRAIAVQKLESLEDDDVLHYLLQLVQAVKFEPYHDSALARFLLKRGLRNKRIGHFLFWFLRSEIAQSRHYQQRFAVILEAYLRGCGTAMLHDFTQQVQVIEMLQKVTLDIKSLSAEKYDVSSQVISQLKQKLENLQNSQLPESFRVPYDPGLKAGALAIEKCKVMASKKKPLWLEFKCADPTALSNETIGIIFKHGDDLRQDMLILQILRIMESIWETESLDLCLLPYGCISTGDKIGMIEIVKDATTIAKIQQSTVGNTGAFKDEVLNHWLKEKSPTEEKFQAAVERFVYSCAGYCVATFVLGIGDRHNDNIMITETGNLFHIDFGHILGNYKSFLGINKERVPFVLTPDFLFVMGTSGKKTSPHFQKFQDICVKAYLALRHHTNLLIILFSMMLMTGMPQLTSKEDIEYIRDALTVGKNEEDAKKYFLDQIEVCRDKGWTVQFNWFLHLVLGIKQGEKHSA
T1 sequence (P48736 whole entry): as above

SMILES	IC50 [1] [nM]	IC50 [2] [nM]
C[C@@H](C1CC1)N1Cc2cc(-c3ccn4nc(N)c(C(=O)N[C@@H]5COC[C@H]5O)c4n3)cc(OC(F)(F)F)c2C1=O [Example 38, 2-Amino-5-{2-[(1S)-1-cyclopropylethyl]-1-oxo-7-(trifluoromethoxy)-2,3-dihydro-1H-isoindol-5-yl}-N-[(3R,4S)-4-hydroxyoxolan-3-yl]pyrazolo[1,5-a]pyrimidine-3-carboxamide]	< 100	< 100
C[C@@H](C1CC1)N1Cc2cc(-c3ccn4nc(N)c(C(N)=O)c4n3)cc(OC(F)(F)F)c2C1=O [Example 39, 5-{2-[(S)-1-Cyclopropylethyl]-7-trifluoromethoxy-5-isoindolinoyl}-2-amino-1,4,7a-triaza-3-indenecarboxamide]	< 100	< 100
C[C@@H](C1CC1)N1Cc2cc(-c3ccn4nc(N)c(C(=O)Nc5ccncc5)c4n3)cc(OC(F)(F)F)c2C1=O [Example 40, (S)-2-Amino-5-(2-(1-cyclopropylethyl)-1-oxo-7-(trifluoromethoxy)isoindolin-5-yl)-N-(pyridin-4-yl)pyrazolo[1,5-a]pyrimidine-3-carboxamide]	< 100	< 100
C[C@@H](C1CC1)N1Cc2cc(-c3ccn4nc(N)c(C(=O)Nc5cccnc5)c4n3)cc(OC(F)(F)F)c2C1=O [Example 41, (S)-2-Amino-5-(2-(1-cyclopropylethyl)-1-oxo-7-(trifluoromethoxy)isoindolin-5-yl)-N-(pyridin-3-yl)pyrazolo[1,5-a]pyrimidine-3-carboxamide]	< 100	< 100
C[C@@H](C1CC1)N1Cc2cc(-c3ccn4nc(N)c(C(=O)Nc5cncc(F)c5)c4n3)cc(OC(F)(F)F)c2C1=O [Example 42, 2-Amino-5-{2-[(1S)-1-cyclopropylethyl]-1-oxo-7-(trifluoromethoxy)-2,3-dihydro-1H-isoindol-5-yl}-N-(5-fluoropyridin-3-yl)pyrazolo[1,5-a]pyrimidine-3-carboxamide]	< 100	< 100
COc1cncc(NC(=O)c2c(N)nn3ccc(-c4cc5c(c(OC(F)(F)F)c4)C(=O)N([C@@H](C)C4CC4)C5)nc23)c1 [Example 43, 2-Amino-5-{2-[(1S)-1-cyclopropylethyl]-1-oxo-7-(trifluoromethoxy)-2,3-dihydro-1H-isoindol-5-yl}-N-(5-methoxypyridin-3-yl)pyrazolo[1,5-a]pyrimidine-3-carboxamide]	< 100	< 100
Cc1ncccc1NC(=O)c1c(N)nn2ccc(-c3cc4c(c(OC(F)(F)F)c3)C(=O)N([C@@H](C)C3CC3)C4)nc12 [Example 44, 2-[(S)-1-Cyclopropylethyl]-5-{2-amino-3-[(2-methyl-3-pyridylamino)carbonyl]-1,4,7a-triaza-5-indenyl}-7-trifluoromethoxy-1-isoindolinone]	< 100	< 100
Cc1ccc(NC(=O)c2c(N)nn3ccc(-c4cc5c(c(OC(F)(F)F)c4)C(=O)N([C@@H](C)C4CC4)C5)nc23)cn1 [Example 45, 2-[(S)-1-Cyclopropylethyl]-5-{2-amino-3-[(6-methyl-3-pyridylamino)carbonyl]-1,4,7a-triaza-5-indenyl}-7-trifluoromethoxy-1-isoindolinone]	< 100	< 100
C[C@@H](C1CC1)N1Cc2cc(-c3ccn4nc(N)c(C(=O)Nc5ccc(N)nc5)c4n3)cc(OC(F)(F)F)c2C1=O [Example 46, 2-[(S)-1-Cyclopropylethyl]-5-{2-amino-3-[(6-amino-3-pyridylamino)carbonyl]-1,4,7a-triaza-5-indenyl}-7-trifluoromethoxy-1-isoindolinone]	< 100	< 100
Cc1ccncc1NC(=O)c1c(N)nn2ccc(-c3cc4c(c(OC(F)(F)F)c3)C(=O)N([C@@H](C)C3CC3)C4)nc12 [Example 47, (S)-2-Amino-5-(2-(1-cyclopropylethyl)-1-oxo-7-(trifluoromethoxy)isoindolin-5-yl)-N-(4-methylpyridin-3-yl)pyrazolo[1,5-a]pyrimidine-3-carboxamide]	< 100	< 100
COc1ccncc1NC(=O)c1c(N)nn2ccc(-c3cc4c(c(OC(F)(F)F)c3)C(=O)N([C@@H](C)C3CC3)C4)nc12 [Example 48, (S)-2-Amino-5-(2-(1-cyclopropylethyl)-1-oxo-7-(trifluoromethoxy)isoindolin-5-yl)-N-(4-methoxypyridin-3-yl)pyrazolo[1,5-a]pyrimidine-3-carboxamide]	< 100	< 100
C[C@@H](C1CC1)N1Cc2cc(-c3ccn4nc(N)c(C(=O)N[C@H]5CCNC5=O)c4n3)cc(C(F)(F)F)c2C1=O [Example 49, 2-Amino-5-{2-[(1S)-1-cyclopropylethyl]-1-oxo-7-(trifluoromethyl)-2,3-dihydro-1H-isoindol-5-yl}-N-[(3S)-2-oxopyrrolidin-3-yl]pyrazolo[1,5-a]pyrimidine-3-carboxamide]	< 100	< 100
C[C@H](CO)NC(=O)c1c(N)nn2ccc(-c3cc4c(c(C(F)(F)F)c3)C(=O)N([C@@H](C)C3CC3)C4)nc12 [Example 50, 5-(3-{[(R)-2-Hydroxy-1-methylethylamino]carbonyl}-2-amino-1,4,7a-triaza-5-indenyl)-2-[(S)-1-cyclopropylethyl]-7-(trifluoromethyl)-1-isoindolinone]	< 100	< 100
C[C@@H](C1CC1)N1Cc2cc(-c3ccn4nc(N)c(C(=O)NCCO)c4n3)cc(C(F)(F)F)c2C1=O [Example 51, 2-[(S)-1-Cyclopropylethyl]-5-{2-amino-3-[(2-hydroxyethylamino)carbonyl]-1,4,7a-triaza-5-indenyl}-7-(trifluoromethyl)-1-isoindolinone]	< 100	< 100
C[C@@H](C1CC1)N1Cc2cc(-c3ccn4nc(N)c(C(=O)NCCCO)c4n3)cc(C(F)(F)F)c2C1=O [Example 52, 2-[(S)-1-Cyclopropylethyl]-5-{2-amino-3-[(3-hydroxypropylamino)carbonyl]-1,4,7a-triaza-5-indenyl}-7-(trifluoromethyl)-1-isoindolinone]	< 100	< 100
C[C@@H](C1CC1)N1Cc2cc(-c3ccn4nc(N)c(C(=O)NC5COC5)c4n3)cc(C(F)(F)F)c2C1=O [Example 53, 2-[(S)-1-Cyclopropylethyl]-5-{2-amino-3-[(3-oxetanylamino)carbonyl]-1,4,7a-triaza-5-indenyl}-7-(trifluoromethyl)-1-isoindolinone]	< 100	< 100
C[C@@H](C1CC1)N1Cc2cc(-c3ccn4nc(N)c(C(=O)N[C@H]5CC[C@@](C)(O)CC5)c4n3)cc(C(F)(F)F)c2C1=O [Example 54, 2-[(S)-1-Cyclopropylethyl]-5-{2-amino-3-[(cis-4-hydroxy-4-methylcyclohexylamino)carbonyl]-1,4,7a-triaza-5-indenyl}-7-(trifluoromethyl)-1-isoindolinone]	< 100	< 100
C[C@@H](C1CC1)N1Cc2cc(-c3ccn4nc(N)c(C(=O)N[C@H]5CC[C@](O)(C(F)(F)F)CC5)c4n3)cc(C(F)(F)F)c2C1=O [Example 55, 2-[(S)-1-Cyclopropylethyl]-5-(2-amino-3-{[cis-4-hydroxy-4-(trifluoromethyl)cyclohexylamino]carbonyl}-1,4,7a-triaza-5-indenyl)-7-(trifluoromethyl)-1-isoindolinone]	< 100	< 100
C[C@@H](C1CC1)N1Cc2cc(-c3ccn4nc(N)c(C(=O)NC5(C)COC5)c4n3)cc(C(F)(F)F)c2C1=O [Example 56, 2-[(S)-1-Cyclopropylethyl]-5-{2-amino-3-[(3-methyl-3-oxetanylamino)carbonyl]-1,4,7a-triaza-5-indenyl}-7-(trifluoromethyl)-1-isoindolinone]	< 100	< 100
